Experiments:
butyrylcholinesterase [1] = biological target: T1, butyrylcholinesterase (Equus caballus, UniProt P81908); assay: biochemical; assay type: biochemical, horse; conditions: for Change in Absorbance at 412 nm/Minute (Normalized): 10^−7M, normalized to 2-chlorophenyl-di-n-butyl phosphate set as 1.0; for Change in Absorbance at 412 nm/Minute (Not Normalized): compound final concentration 10^−7M; for inhibition at 100 µM: read-out: % inhibition of BuChase
T1 construct: butyrylcholinesterase (from horse serum); purchased Sigma; host or cells: horse serum (natural source)
T1 sequence (P81908 whole entry): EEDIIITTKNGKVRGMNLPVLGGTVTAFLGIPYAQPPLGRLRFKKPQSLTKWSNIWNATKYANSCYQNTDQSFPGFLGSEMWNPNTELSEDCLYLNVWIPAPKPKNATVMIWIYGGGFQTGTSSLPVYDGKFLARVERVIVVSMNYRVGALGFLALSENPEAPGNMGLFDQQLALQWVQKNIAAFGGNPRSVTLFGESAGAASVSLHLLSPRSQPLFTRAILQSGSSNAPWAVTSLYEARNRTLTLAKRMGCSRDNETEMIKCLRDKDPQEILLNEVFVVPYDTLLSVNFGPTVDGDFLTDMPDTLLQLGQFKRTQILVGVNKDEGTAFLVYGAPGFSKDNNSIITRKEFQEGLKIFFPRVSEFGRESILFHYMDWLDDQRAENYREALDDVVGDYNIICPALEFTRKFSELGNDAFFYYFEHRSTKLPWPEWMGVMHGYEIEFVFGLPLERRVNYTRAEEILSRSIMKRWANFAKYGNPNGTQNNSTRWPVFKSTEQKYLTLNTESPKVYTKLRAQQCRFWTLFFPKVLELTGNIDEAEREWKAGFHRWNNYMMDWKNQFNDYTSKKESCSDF
Protocol: (§1) Cholinesterase activity measurements were performed essentially according to the method of Ellman (Biochemical Pharmacology 7:88-90, 1961). The composition of the assay mixture was 0.1 M sodium phosphate, pH 7.5, 0.033 M DTNB, 0.001 M MgCl2, and 100 μg/mL of BSA containing appropriate amounts of substrate and inhibitor. Each assay was initiated by the addition of substrate and the activity quantified by measuring the formation of the thionitrobenzoate anion at 412 nm at 37° C. Methanol used to solubilize the dialkyl phenyl phosphates [1% (v/v) final concentration] had no inhibitory effect on either enzyme.
. The results were obtained by pre-incubating the enzyme with the compound (final concentration 10^−7M) for various periods of time and measuring the remaining enzyme activity. The results are shown as the change in absorbance at 412 nm/minute. In order to simplify the results from all the compounds, the enzyme activities were normalized to 2-chlorophenyl-di-n-butyl phosphate which was set as 1.0. Since two different preparations of enzyme were used, the normalization procedure would adjust for any differences in the amount of enzyme. […]. In other cases, the compound's inhibitory activity is not as strong and assay conditions were modified to increase the inhibitor concentration.
Table 4: Rates of inactivation of butyrylcholinesterase by exemplary compounds: Change in Absorbance at 412 nm/Minute. (ND=No Data)

butyrylcholinesterase [2] = biological target: T1, butyrylcholinesterase; assay: Native gel electrophoresis activity stain, BuChase; assay type: biochemical, horse; conditions: pre-incubation with inhibitor
Protocol: (§2) Enzyme activity was also measured by native gel electrophoresis. For cholinesterase activity, proteins (10 μg of both acetylcholinesterase and butyrylcholinesterase) were fractionated on Novex precast 10% Tris glycine gels (Invitrogen). Enzyme activity was detected by first incubating the gels in a solution of 5 mM substrate then staining with a solution of copper sulfate/potassium ferricyanide.
(§3) Using native gel electrophoresis, both AcChase and BuChase activity was detected. Pre-incubation of AcChase with di-ethyl 2-chlorophenyl phosphate had no effect on AcChase activity (FIG. 1).

[3] = biological target: T2, butyrylcholinesterase (from horse serum) (Equus caballus, UniProt P81908); assay: Rates of inactivation of butyrylcholinesterase, Ellman assay; assay type: biochemical; conditions: for k, rate constant of inactivation of butyrylcholinesterase ± S.E.M: 100 nM inhibitor, 25° C.; for effect on BuChase activity under standard conditions: standard conditions (100 nM inhibitor)
T2 construct: butyrylcholinesterase (from horse serum); purchased Sigma; host or cells: horse serum (natural source)
T2 sequence (P81908 whole entry): as above
Protocol: (§4) Acetylcholinesterase (from electric eel), butyrylcholinesterase (from horse serum), DTNB, butyrylthiocholine, acetylthiocholine, and BSA were purchased from Sigma. The dialkyl 2-chlorophenyl (and 4-chlorophenyl) phosphates were solubilized in reagent grade methanol.
as §1
(§5) Butyrylcholinesterase was pre-incubated at room temperature with inhibitor in the assay cocktail minus substrate for varying periods of time at 25° C. Substrate was then added and the activity measured as described above. The relative rates of enzyme inactivation were determined by plotting enzyme activity versus time of pre-incubation with inhibitor. Results were expressed as the rate constant for the rate of enzyme inactivation. In the case of AcChase, results were expressed as the % of activity remaining relative to the enzyme incubated only with solvents.
. […] In Table 2, BuChase was incubated for increasing periods of time at 25° C. with 100 nM inhibitor then assayed for activity as described above. Rate constants were calculated from a plot of enzyme activity vs. time of inhibitor exposure. […]. Slopes were calculated by linear regression analysis.

butyrylcholinesterase [4] = biological target: T1, butyrylcholinesterase; assay: Phosphorylation of BuChase by 14C-labeled inhibitor, autoradiography; parameters: species or system horse; conditions: 14C-labeled compound, native gel
Protocol: The cholinesterases were pre-incubated with ^14C-di-ethyl-2-chlorophenyl phosphate and then fractionated by native gel electrophoresis as described above. The proteins were fixed in the gel with 10% acetic acid/30% methanol. The fixative was removed and replaced with 100 mL of EN^3HANCE. The gel was incubated for 60 minutes at room temperature with gentle agitation and then placed in 5% PEG and incubated for 30 minutes at room temperature with gentle agitation. The gel was then dried down on a piece of 3 MM filter paper, exposed to X-ray film at −80° C. for 2 weeks, and then developed.

[5] = biological target: T3, Acetylcholinesterase (from electric eel) (Electrophorus electricus, UniProt O42275); assay: Acetylcholinesterase activity, Ellman assay after pre-incubation with inhibitor; assay type: biochemical; conditions: 100 μM compound, 60 minutes at 25° C.
T3 construct: Acetylcholinesterase (from electric eel); purchased Sigma; host or cells: electric eel (natural source)
T3 sequence (O42275 24-633): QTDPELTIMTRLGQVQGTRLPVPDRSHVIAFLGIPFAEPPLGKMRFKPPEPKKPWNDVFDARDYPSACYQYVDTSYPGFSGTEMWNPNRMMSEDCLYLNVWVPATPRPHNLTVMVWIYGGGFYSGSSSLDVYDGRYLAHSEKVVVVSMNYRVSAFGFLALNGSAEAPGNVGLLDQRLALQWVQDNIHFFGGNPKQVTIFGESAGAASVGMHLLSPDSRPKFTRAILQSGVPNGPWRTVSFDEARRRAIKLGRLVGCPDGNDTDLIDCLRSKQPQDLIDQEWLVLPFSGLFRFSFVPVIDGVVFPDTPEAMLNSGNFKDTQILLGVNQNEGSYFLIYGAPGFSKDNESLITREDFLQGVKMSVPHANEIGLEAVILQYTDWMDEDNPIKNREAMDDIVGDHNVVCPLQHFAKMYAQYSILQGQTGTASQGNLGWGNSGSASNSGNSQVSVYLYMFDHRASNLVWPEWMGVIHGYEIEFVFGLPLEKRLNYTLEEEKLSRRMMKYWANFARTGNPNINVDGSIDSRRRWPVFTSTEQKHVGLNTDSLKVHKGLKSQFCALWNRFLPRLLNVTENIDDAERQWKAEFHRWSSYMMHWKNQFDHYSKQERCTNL
Protocol: as §4, §1, §5
The first series of experiments determined the effect of the dialkyl 2-chlorophenyl (and 4-chlorophenyl) phosphates on both AcChase and BuChase. None of the compounds had any inhibitory effect on AcChase (See Table 1). In Table 1, AcChase was incubated with 100 μM of the indicated phenyl phosphate for 60 minutes at 25° C. and then assayed as described above. Results were expressed as the % activity relative to enzyme incubated with solvent ±SD (standard deviation).

acetylcholinesterase = biological target: T4, acetylcholinesterase (Electrophorus electricus, UniProt O42275); assay: Native gel electrophoresis activity stain, AcChase; assay type: biochemical, electric eel; conditions: pre-incubation with inhibitor
T4 construct: Acetylcholinesterase (from electric eel); purchased Sigma; host or cells: electric eel (natural source)
T4 sequence (O42275 24-633): as above
Protocol: as §2, §3

[6] = biological target: T2, butyrylcholinesterase (from horse serum); assay: Rates of inactivation of butyrylcholinesterase, Ellman assay; assay type: biochemical; conditions: inhibitor at 10^−4M

`CCCCOP(=O)(OCCCC)Oc1ccccc1Br` was tested, and the “Change in Absorbance at 412 nm/Minute (Normalized)” value (“Change in Absorbance … (Normalized)” for short) (butyrylcholinesterase [1]) was 1.366 and the “Change in Absorbance at 412 nm/Minute (Not Normalized)” value (from here on “Change … (Not Normalized)”) (butyrylcholinesterase [1]) was 0.918.
For `CCCCOP(=O)(OCCCC)Oc1cccc(Br)c1`, the “Change in Absorbance … (Normalized)” value (butyrylcholinesterase [1]) was 6.220 and the “Change … (Not Normalized)” value (butyrylcholinesterase [1]) was 4.18.
For `CCCCOP(=O)(OCCCC)Oc1ccc(Br)cc1`, the “Change in Absorbance … (Normalized)” value (butyrylcholinesterase [1]) was 0.737 and the “Change … (Not Normalized)” value (butyrylcholinesterase [1]) was 0.495.
In the case of `CCCCOP(=O)(OCCCC)Oc1ccc(Cl)cc1Cl`, the “% inhibition of BuChase after 1 minute” value (butyrylcholinesterase [1]; standard conditions (10^−7M), 1 minute) is reported as 92% inhibition after 1 minute under standard conditions.
In the case of `CCCCOP(=O)(OCCCC)Oc1cccc(F)c1`, the “Change in Absorbance … (Normalized)” value (butyrylcholinesterase [1]) is reported as 0.696 and the “Change … (Not Normalized)” value (butyrylcholinesterase [1]) is reported as 0.468.
With `CCCCOP(=O)(OCCCC)Oc1ccccc1F` the “Change in Absorbance … (Normalized)” value (butyrylcholinesterase [1]) was 2.604 and the “Change … (Not Normalized)” value (butyrylcholinesterase [1]) was 1.75.
For `CCCCOP(=S)(OCCCC)Oc1ccccc1Cl`, the “% inhibition of BuChase” value (butyrylcholinesterase [1]; compound at 10^−4 M) was 14.6% and the “inhibitory under standard conditions” value (butyrylcholinesterase [1]; standard conditions (10^−7M)) was “Not Inhibitory”.
For `CCCCOP(=O)(Oc1ccc(Cl)cc1Cl)Oc1ccc(Cl)cc1Cl`, the inhibition at 100 µM (butyrylcholinesterase [1]; compound at 10^−4 M) was 63.4% and the “inhibitory under standard conditions” value (butyrylcholinesterase [1]; standard conditions (10^−7M)) was “Not inhibitory”.
With `O=P(Oc1ccccc1)(Oc1ccccc1)Oc1ccccc1Cl` the inhibition at 100 µM (butyrylcholinesterase [1]; compound at 10^−4 M) was 29.4% and the “inhibitory under standard conditions” value (butyrylcholinesterase [1]; standard conditions (10^−7M)) was “Not inhibitory”.
In the case of `CCCCOP(=O)(OCCCC)Oc1ccccc1C`, the type of inhibition (butyrylcholinesterase [1]) is reported as “Reversible inhibitor: Ki = 2.1 μM”.
`CCCCOP(=O)(OCCCC)Oc1ccc([N+](=O)[O-])cc1` was tested, and the “% Inhibition of BuChase, immediate” value (butyrylcholinesterase [1]; standard conditions (10^−7M)) was 100% Inhibition (Immediate under standard conditions).
With `CCCCOP(=O)(OCCCC)Oc1cccc([N+](=O)[O-])c1` the “% Inhibition of BuChase after 2 minutes” value (butyrylcholinesterase [1]; standard conditions (10^−7M), 2 minutes) was 100% and the “% Inhibition of BuChase, immediate” value (butyrylcholinesterase [1]; standard conditions (10^−7M)) was 83%.
For `CCCCCCP(=O)(OCCCC)Oc1ccccc1Cl` (stereo not shown), the “Change in Absorbance … (Normalized)” value (butyrylcholinesterase [1]) was 14.94 and the “Change … (Not Normalized)” value (butyrylcholinesterase [1]) was 10.04.
For `CCCCP(=O)(Oc1ccccc1Cl)Oc1ccccc1Cl`, the “Change in Absorbance … (Normalized)” value (butyrylcholinesterase [1]) was 0.48 and the “Change … (Not Normalized)” value (butyrylcholinesterase [1]) was 0.32.
In the case of `CCCCP(=O)(CCCC)Oc1ccccc1Cl`, the “Change in Absorbance … (Normalized)” value (butyrylcholinesterase [1]) is reported as 1.018 and the “Change … (Not Normalized)” value (butyrylcholinesterase [1]) is reported as 0.684.
`CCCCCCNP(=O)(OCCCC)Oc1ccccc1Cl` (stereo not shown) was tested, and the “Change in Absorbance … (Normalized)” value (butyrylcholinesterase [1]) was 1.024 and the “Change … (Not Normalized)” value (butyrylcholinesterase [1]) was 0.688.
With `CCCCCCNP(=O)(Oc1ccccc1Cl)Oc1ccccc1Cl` the inhibition at 100 µM (butyrylcholinesterase [1]; compound at 10^−4 M) was 73.9% and the “inhibitory under standard conditions” value (butyrylcholinesterase [1]; standard conditions (10^−7M)) was “Not inhibitory”.
For `CCOP(=O)(OCC)Oc1ccccc1Cl` [Di-ethyl-, 2-Chlorophenyl diethyl phosphate], the “effect on BuChase activity, native gel (FIG. 2A)” value (butyrylcholinesterase [2]) was “nearly completely inhibited”, the “k, rate constant of inactivation of butyrylcholinesterase ± S.E.M” value (from here on “k, rate constant”) [3] was 6.64 ± 2.1 min^−1 × 10^−2 and the “covalent modification of BuChase (FIG. 2B)” value (butyrylcholinesterase [4]) was “covalently modified”. For the same compound, the “% Activity ± SD (acetylcholinesterase activity relative to enzyme incubated with solvent)” value [5] was 96.77 ± 0.019% and the “effect on AcChase activity, native gel (FIG. 1)” value (acetylcholinesterase) was “no effect”.
For `CC(C)COP(=O)(OCC(C)C)Oc1ccccc1Cl` [Di-iso-butyl-, Di-i-butyl 2-Chlorophenyl phosphate], the “k, rate constant” value [3] was 60.83 ± 5.8 min^−1 × 10^−2 and the “% Activity ± SD (acetylcholinesterase activity relative to enzyme incubated with solvent)” value [5] was 96.18 ± 0.023%.
With `CC(C)OP(=O)(Oc1ccccc1Cl)OC(C)C` [Di-iso-propyl-, 2-Chlorophenyl di-i-propyl phosphate] the “effect on BuChase activity under standard conditions” value [3] was “no effect”, the “% Inhibition of butyrylcholinesterase” value [6] was 85.3% Inhibition and the “% Activity ± SD (acetylcholinesterase activity relative to enzyme incubated with solvent)” value [5] was 97.82 ± 0.045%.
`COP(=O)(OC)Oc1ccccc1Cl` [Di-methyl-, 2-Chlorophenyl dimethyl phosphate] was tested, and the “effect on BuChase activity under standard conditions” value [3] was “no effect”, the “% Inhibition of butyrylcholinesterase” value [6] was 48.9% Inhibition and the “% Activity ± SD (acetylcholinesterase activity relative to enzyme incubated with solvent)” value [5] was 101.9 ± 0.019%.
`CCCCOP(=O)(OCCCC)Oc1ccc(Cl)cc1` [Di-n-butyl-(4Cl), Di-n-butyl 4-chlorophenyl phosphate] was tested, and the “k, rate constant” value [3] was 13.01 ± 2.0 min^−1 × 10^−2 and the “% Activity ± SD (acetylcholinesterase activity relative to enzyme incubated with solvent)” value [5] was 97.61 ± 0.006%.
With `CCCCCOP(=O)(OCCCCC)Oc1ccccc1Cl` [Di-n-pentyl-, 2-Chlorophenyl di-n-pentyl phosphate] the “k, rate constant” value [3] was 30.44 ± 3.3 min^−1 × 10^−2 and the activity at 100 µM ([5]; read-out: % Activity ± SD (acetylcholinesterase activity relative to enzyme incubated with solvent)) was 101.7 ± 0.03%.
For `CCCOP(=O)(OCCC)Oc1ccccc1Cl` [Di-n-propyl-, 2-Chlorophenyl di-n-propyl phosphate], the “k, rate constant” value [3] was 20.21 ± 2.2 min^−1 × 10^−2 and the “% Activity ± SD (acetylcholinesterase activity relative to enzyme incubated with solvent)” value [5] was 97.38 ± 0.028%.
`CCCCOP(=O)(OCCCC)Oc1ccc(Cl)cc1` [drawing 55] was tested, and the “Change in Absorbance … (Normalized)” value (butyrylcholinesterase [1]) was 0.338 and the “Change … (Not Normalized)” value (butyrylcholinesterase [1]) was 0.227.
